{"source": "patent US12440527B2", "about": "“Organic sol-gel nano-composition from panax notoginseng, rutin, ginkgo biloba effective in enhancing cerebral and cardiovascular protection and method of producing thereof” (priority 2020, dated 2025)", "type_in_all_cases": "in vivo", "key": {"white mice": {"test_system": "white mice", "assay": "Sedative effect on the advanced plus model (close/open branch)", "experimental": "(§1) In the test, the white mice were randomly divided into 4 batches, each batch having 10 animals: Batch 1 (biological control) was subjected to oral administration of 20 mL/kg/day distilled water; batch 2 (positive control) was subjected to oral administration of 2.4 mg/kg/day diazepam; batch 3 was subjected to oral administration of the composition at dose of 0.96 pill/kg/day (equivalent to the clinical dose); batch 4 was subjected to oral administration of the composition at dose of 2.88 pill/kg/day (3 times as much as the clinical dose)."}, "[1]": {"test_system": "white mice injected with nikethamide", "assay": "Anticonvulsant effect after nikethamide injection", "experimental": "as §1, with “dose). After the mice were injected with nikethamide, the time of convulsion onset and the death time of the mice were taken.” for “dose).”"}, "[2]": {"test_system": "white mice injected with nitroglycerin (NTG), chronic migraine model", "assay": "Vasomotor pain relieving effect on chronic migraine model (nitroglycerin injection, dolorimeter)", "details": "oral 40 mg/kg propranolol, NTG 10 mg/kg", "experimental": "In the test, the white mice were randomly divided into 5 batches, each batch having 10 animals: Batch 1 (biological control) was subjected to oral administration of 0.2 ml/10 g water; batch 2 (model) injected 10 mg/kg with nitroglycerin (NTG) was subjected to oral administration of 0.2 mL/10 g water; batch 3 (positive control) injected with 10 mg/kg nitroglycerin was subjected to oral administration of 40 mg/kg propranolol; batch 4 injected with 10 mg/kg nitroglycerin was subjected to oral administration of the composition at dose of 0.96 pill/kg/day (equivalent to the clinical dose); batch 5 injected with 10 mg/kg nitroglycerin was subjected to oral administration of the composition at dose of 2.88 pill/kg/day (3 times as much as the clinical dose)."}, "[3]": {"details": "After 7 days of oral administration of the drug, Diazepam at 2.4 mg/kg/day"}, "[4]": {"details": "Before oral administration of the drug, Diazepam at 2.4 mg/kg/day batch"}}, "data": [{"compound": "CN1C(=O)CN=C(c2ccccc2)c2cc(Cl)ccc21", "note": "[Diazepam, diazepam]", "values": [{"measurement": "Avoidance rate at the open branch", "setting": "white mice; [3]", "value": "46.37 ± 9.21"}, {"measurement": "Number of times of mouse introduction into the close branch", "setting": "white mice; [3]", "value": 6.40}, {"measurement": "Number of times of mouse introduction into the open branch", "setting": "white mice; [3]", "value": 6.90}, {"measurement": "Time of mouse introduction into the close branch", "setting": "white mice; [3]", "value": 121.20, "unit": "s"}, {"measurement": "Time of mouse introduction into the open branch", "setting": "white mice; [3]", "value": 150.10, "unit": "s"}, {"measurement": "Avoidance rate at the open branch", "setting": "white mice; [4]", "value": "69.21 ± 8.88"}, {"measurement": "Number of times of mouse introduction into the close branch", "setting": "white mice; [4]", "value": 11.50}, {"measurement": "Number of times of mouse introduction into the open branch", "setting": "white mice; [4]", "value": 4.30}, {"measurement": "Time of mouse introduction into the close branch", "setting": "white mice; [4]", "value": 173.70, "unit": "s"}, {"measurement": "Time of mouse introduction into the open branch", "setting": "white mice; [4]", "value": 90.40, "unit": "s"}, {"measurement": "Effect on time of convulsion onset and death time vs model batch", "setting": "[1]; 2.4 mg/kg/day diazepam, after nikethamide injection", "value": "took effects in prolonging the time of convulsion onset and the death time"}, {"measurement": "Death time of the mice after nikethamide injection", "setting": "[1]; Diazepam at 2.4 mg/kg/day oral", "value": "14.91 ± 3.67", "unit": "min"}, {"measurement": "Time of convulsion onset", "setting": "[1]; Diazepam at 2.4 mg/kg/day oral, after nikethamide injection", "value": "2.08 ± 0.55", "unit": "min"}]}, {"compound": "CC(C)NCC(O)COc1cccc2ccccc12", "note": "(centres unmarked) [Propranolol, propranolol]", "values": [{"measurement": "Pain-inducing force in the dolorimeter (baseline pain threshold)", "setting": "[2]; Day 3", "value": "7.6 ± 1.5", "unit": "g"}, {"measurement": "Pain-inducing force on the dolorimeter (pain threshold after treatment)", "setting": "[2]; Day 3", "value": "6.8 ± 1.2", "unit": "g"}, {"measurement": "Pain-inducing force in the dolorimeter (baseline pain threshold)", "setting": "[2]; Day 5", "value": "6.5 ± 1.1", "unit": "g"}, {"measurement": "Pain-inducing force on the dolorimeter (pain threshold after treatment)", "setting": "[2]; Day 5", "value": "7.0 ± 1.0", "unit": "g"}, {"measurement": "Pain-inducing force in the dolorimeter (baseline pain threshold)", "setting": "[2]; Day 7", "value": "6.4 ± 1.0", "unit": "g"}, {"measurement": "Pain-inducing force on the dolorimeter (pain threshold after treatment)", "setting": "[2]; Day 7", "value": "6.7 ± 0.5", "unit": "g"}, {"measurement": "Pain-inducing force in the dolorimeter (baseline pain threshold)", "setting": "[2]; Day 9", "value": "7.1 ± 0.9", "unit": "g"}, {"measurement": "Pain-inducing force on the dolorimeter (pain threshold after treatment)", "setting": "[2]; Day 9", "value": "6.7 ± 0.5", "unit": "g"}, {"measurement": "Pain-inducing force in the dolorimeter (baseline pain threshold)", "setting": "[2]; Day 11", "value": "7.1 ± 1.0", "unit": "g"}, {"measurement": "Pain-inducing force on the dolorimeter (pain threshold after treatment)", "setting": "[2]; Day 11", "value": "7.8 ± 0.7", "unit": "g"}]}]}
